The results in this text go back to US4906663A, “6-fluoroprostaglandins” (Asahi Glass Company, Ltd., priority 1987, dated 1990).

For test [1], the system named is platelet aggregation. The experiment in a line: In vitro inhibition of ADP (1 μM)-induced platelet aggregation (turbidimetric method of Born, platelet-rich plasma). Type of test: cell-based, guinea-pigs of Hartley strain. As to conditions: guinea-pig PRP, preincubated 37° C. for 10 minutes; for IC50: Cavia porcellus, Platelet. On the procedure: (§1) Platelet aggregation study was carried out by a tarbidimetric method of Born (G. V. R. Born; Nature, 194, 927, 1962) using an aggregometer. Citrated blood obtained from guinea-pigs of Hartley strain was centrifuged at 120 g for 10 minutes and the supernatant, Platelet-rich plasma (PRP), was separated. In in vitro experiments, PRP was preincubated with test compounds at 37° C. for 10 minutes and then aggregation was induced by adding ADP (1 μM). Extent of aggregation was estimated with maximum changes of light transmittance within 5 minutes after adding ADP. Inhibitory potencies of compounds were expressed with the concentration showing 50% inhibition of platelet aggregation (IC50). In ex vivo experiments, compounds were orally given to guinea-pigs. Blood was taken 5 hours after the administration of compounds, and platelet aggregation study was performed as described in in vitro experiments. Potencies of compnds was expressed with minimum dose showing significant inhibition (MED).

The subject of test [2] is platelet aggregation. Nature of the test: Ex vivo inhibition of ADP-induced platelet aggregation 5 hours after oral administration. Type of test: in vivo. As to conditions: Cavia porcellus, blood taken 5 hours after administration, guinea-pigs, read-out: Ex vivo MED (minimum dose showing significant inhibition of platelet aggregation). As to the method: as §1
The subject of test [3] is depression in amplitude of ST-segment on ECG (vasopressin). The experiment in a line: Antianginal effect: vasopressin-induced depression in amplitude of ST-segment on ECG. The test is classed as in vivo, male rats of Donryu strain. As to conditions: Rattus norvegicus, anesthetized rats. As to the method: Antianginal effect of compounds was evaluated in male rats of Donryu strain according to Hatano et al. (N. Hatano et al.; Pharmacometrics, 19, 311, 1980) Vasopressin (0.2 IU/kg) was injected into femoral vein of anesthetized rats, and the depression in amplitude of ST-segment on ECG was measured at 30 second-intervals for 5 minutes after the vasopressin injection. Test compounds were intravenously injected 2 minutes before or orally given 30 minutes before the vasopressin injection. Data were analysed with two dimension analysis between the control and treated groups, and potencies of the compounds were expressed by MED.

Test [4] relates to gastric ulcer (HCl-ethanol induced). Nature of the test: Inhibitory effect on gastric ulcer induced by HCl-ethanol (lesion index). Type of test: in vivo, rats (male, Wister strain). The following applies: Rattus norvegicus; oral, 30 minutes before 0.4N HCl-50% ethanol (1 ml); over night-fasted rats; read-out: ED50 (dose required for 50% inhibition of lesion index). As to the method: Gastric ulcer was induced by an oral administration of 0.4N HCl-50% ethanol (1 ml) to over night-fasted rats (male, Wister strain). One hour after HCl-ethanol administration, rats were sacrificed and their stomachs were isolated. Isolated stomachs were inflated with saline and fixed with 5% formalin. After fixation, the stomach was cut open along greater curvature and maximum length of each lesion was measured. The sum of lesion length was defined as the lesion index. Compounds were given orally 30 minutes before administration of HCl-ethanol. Potencies of compounds were expressed with ED50, the dose required for 50% inhibition of lesion index.

[5] abbreviates: iv, I.V., 2 minutes before vasopressin 0.2 IU/kg, read-out: I.V. MED (antianginal effect).
[6] abbreviates: po, P.O., 30 minutes before vasopressin 0.2 IU/kg, read-out: P.O. MED (antianginal effect).

≈ marks a conversion by molar mass, not a printed value. Read-outs that look alike come from different tables or passages of the source.

As to `CCCCCC(O)C=CC1C(O)CC(=O)C1CC(F)CCCCC(=O)O` (single isomer, unassigned; ent-6) [APG - 23, 8-ent-6-fluoro-PGE1], the “In Vitro IC50 (platelet aggregation)” value with platelet aggregation [1] was 0.0145 µg/mL.
One may read the IC50 as the concentration that gives 50% inhibition. Low readings indicate inhibition by little substance, high ones a need for much substance. On to `CCCC[C@H](C)C[C@H](O)/C=C/[C@H]1[C@H](O)CC(=O)[C@H]1CC(F)CCCCC(=O)O` (single isomer, unassigned; ent-17) [APG - 25], for which, in the test on platelet aggregation [1], half-maximal inhibition (IC50) was put at 0.0127 µg/mL (≈ 0.0317 µM). Further, the minimal effective dose in the test on platelet aggregation [2] was found to be 3000 µg/kg; in test [3] (setting [5]), 1 µg/kg; in test [3] (setting [6]), 0.1 µg/kg.
In the test on platelet aggregation [1], `CCCCC[C@H](O)/C=C/[C@H]1[C@H](O)CC(=O)[C@@H]1/C=C(/F)CCCCC(=O)O` [APG - 2, (6E)-Δ^6-6-fluoro-PGE1] returned an IC50 of 0.52 µg/mL (≈ 1.4 µM).
With `CCCCC[C@H](O)/C=C/[C@H]1[C@H](O)CC(=O)[C@@H]1C/C(F)=C\CCCC(=O)O` [APG - 5, 6-fluoro-PGE2], the concentration for half-maximal inhibition (IC50) with platelet aggregation [1] came out at 0.49 µg/mL (≈ 1.32 µM).
`CCCCC[C@H](O)/C=C/[C@H]1[C@H](O)CC(=O)[C@@H]1C/C(F)=C\CCCC(=O)OC` [APG - 7, 6-fluoro-PGE2 methyl ester]: the IC50 with platelet aggregation [1] was found to be 0.655 µg/mL (≈ 1.7 µM).
Still for that read-out and setting: as for `CCCCC[C@H](O)/C=C/[C@H]1[C@H](O)CC(=O)[C@@H]1CC(F)CCCCC(=O)O` (stereo partly drawn) [APG - 21, 6-fluoro-PGE1], the figure is 0.1 µg/mL (≈ 0.268 µM).
In turn, `CCCC[C@H](C)C[C@H](O)/C=C/[C@H]1[C@H](O)CC(=O)[C@@H]1CC(F)CCCCC(=O)O` (stereo partly drawn) [APG - 24, (17S)-17,20-dimethyl-6-fluoro-PGE1] registered a 50% inhibitory concentration (IC50) in the test with platelet aggregation [1] of 0.0059 µg/mL (≈ 0.0147 µM). Further, the minimal effective dose in the test with platelet aggregation [2] turned out to be 300 µg/kg; in test [3] (setting [5]), 10 µg/kg; in test [3] (setting [6]), 0.1 µg/kg.
A word on the ED50: it is the dose at which the effect has come halfway, by size or by number of responders. In the test with platelet aggregation [1], `CCCC[C@H](C)C[C@H](O)/C=C/[C@H]1[C@H](O)CC(=O)[C@@H]1C/C(F)=C\CCCC(=O)O` [APG - 27, (17S)-17,20-dimethyl-6-fluoro-PGE2] gave an IC50 of 0.0427 µg/mL (≈ 0.107 µM). The median effective dose (ED50) in test [4] worked out at 3.4 µg/kg.
Consider `CCCC[C@H](C)C[C@H](O)/C=C/[C@H]1[C@H](O)CC(=O)[C@@H]1CC(F)CC/C=C/C(=O)O` (stereo partly drawn) [APG - 29, Δ^2-(17S)-17,20-dimethyl-6-fluoro-PGE1], for which the IC50 in the test with platelet aggregation [1] was determined as 0.00233 µg/mL (≈ 0.00585 µM). Further, the minimal effective dose in the test with platelet aggregation [2] was 100 µg/kg; in test [3] (setting [6]), 0.1 µg/kg. In addition, the 50% effective dose (ED50) in test [4] worked out at 1.8 µg/kg.
For `CCCC[C@H](C)C[C@H](O)/C=C/[C@H]1[C@H](O)CC(=O)[C@H]1CC(F)CC/C=C/C(=O)O` (stereo partly drawn) [APG - 30, (17S)-8-ent-Δ^2-17,20-dimethyl-6-fuoro-PGE1], in the test on platelet aggregation [1], the IC50 turned out to be 0.00105 µg/mL (≈ 0.00263 µM). In addition, the minimal effective dose with platelet aggregation [2] came out at 1000 µg/kg.
